Measured values reported in patent US20170144998A1, “ELASTASE INHIBITORS” (The California Institute for Biomedical Research, priority 2014, published 2017).
pIC50: −log10 of the molar value.

These compounds were tested against T1, HNE (human neutrophil elastase) (Homo sapiens, UniProt P08246) (assay: Elastase enzyme in-vitro inhibition assay). Details: HNE 20 nM, 15 min incubation at room temperature, substrate MeOSuc-AAPV-AMC 100 μM, PBS buffer.
T1 construct: purchased Elastin Products (Owensville, Mo., USA) SE563
T1 sequence (P08246 30-267): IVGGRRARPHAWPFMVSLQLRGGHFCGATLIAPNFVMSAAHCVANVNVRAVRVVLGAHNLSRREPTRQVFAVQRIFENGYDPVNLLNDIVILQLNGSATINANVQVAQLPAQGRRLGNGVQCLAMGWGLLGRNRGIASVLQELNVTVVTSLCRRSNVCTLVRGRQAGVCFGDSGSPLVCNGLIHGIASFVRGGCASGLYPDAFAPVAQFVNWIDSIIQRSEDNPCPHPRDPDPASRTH
Type: biochemical
Method: HNE were purchased from Elastin Products (Owensville, Mo., USA) with catalog number SE563. Fixed concentrations of HNE (20 nM) were incubated with various concentrations of inhibitors in PBS buffer in opaque 96-well plates. After 15 min incubation at room temperature, the corresponding fluorescent substrates MeOSuc-AAPV-AMC (Merck Millipore) were added to each well at final concentration 100 μM. Fluorescence was monitored on a Molecular Devices Spectramax fluorescence plate reader at 460 nm with excitation at 380 nm for 30 min. Residual enzyme activity was calculated using the slope of fluorescence increase in the first 10 min. Percentage of enzyme inhibition was plotted using GraphPad Prism 6 software (GraphPad Prism, La Jolla, Calif., USA). The IC50 value and Ki value was calculated using the Morrison tight-binding equation provided by the software.

Question: With `CC(C)C(NC(=O)[C@@H]1CCCN1C(=O)[C@@H](NC(=O)c1ccc(C(=O)NCCOCCOCCNC(=O)NCCCCNC(=O)NCCOCCOCCNC(=O)c2ccc(C(=O)N[C@H](C(=O)N3CCC[C@H]3C(=O)NC(C(=O)C(F)(F)F)C(C)C)C(C)C)cc2)cc1)C(C)C)C(=O)C(F)(F)F` (some centres unmarked) [Compound 1] as the compound, how does the pIC50 read?
Answer: The pIC50 was > 6.82.

Question: With `Cc1c(-c2ccnn2C)cc(C(=O)NCCOCCOCCNC(=O)NCCCCNC(=O)NCCOCCOCCNC(=O)c2cc(-c3ccnn3C)c(C)n(-c3cccc(C(F)(F)F)c3)c2=O)c(=O)n1-c1cccc(C(F)(F)F)c1` [Compound 2] as the compound, how does the pIC50 read?
Answer: Its pIC50 is 6.00 to 6.82.

Question: With `Cc1c(-c2ccnn2-c2ccc(C#N)cc2)cc(C(=O)NCCOCCOCCNC(=O)NCCOCCOCCNC(=O)c2cc(-c3ccnn3-c3ccc(C#N)cc3)c(C)n(-c3cccc(C(F)(F)F)c3)c2=O)c(=O)n1-c1cccc(C(F)(F)F)c1` [Compound 3] as the compound, how does the pIC50 read?
Answer: Its pIC50 is > 6.82.

Question: With `Cc1c(-c2ccnn2-c2ccc(C#N)cc2)cc(C(=O)NCCOCCOCCOCCOCCNC(=O)NCCCCNC(=O)NCCOCCOCCOCCOCCNC(=O)c2cc(-c3ccnn3-c3ccc(C#N)cc3)c(C)n(-c3cccc(C(F)(F)F)c3)c2=O)c(=O)n1-c1cccc(C(F)(F)F)c1` [Compound 4] as the compound, how does the pIC50 read?
Answer: The pIC50 was > 6.82.

Question: `Cc1c(-c2ccnn2-c2ccc(C#N)cc2)cc(C(=O)NCCOCCOCCOCCOCCNC(=O)CCC(=O)NCCOCCOCCOCCOCCNC(=O)c2cc(-c3ccnn3-c3ccc(C#N)cc3)c(C)n(-c3cccc(C(F)(F)F)c3)c2=O)c(=O)n1-c1cccc(C(F)(F)F)c1` [Compound 5] was tested. Which pIC50 did it give?
Answer: Its pIC50 is > 6.82.

Question: `Cc1c(-c2ccnn2-c2ccc(C#N)cc2)cc(C(=O)NCCOCCOCCOCCOCCNC(=O)NCCOCCOCCOCCOCCNC(=O)c2cc(-c3ccnn3-c3ccc(C#N)cc3)c(C)n(-c3cccc(C(F)(F)F)c3)c2=O)c(=O)n1-c1cccc(C(F)(F)F)c1` [Compound 6] was tested. Which pIC50 did it give?
Answer: Its pIC50 is > 6.82.

Question: With `Cc1c(-c2ccnn2-c2ccc(C#N)cc2)cc(C(=O)NCCOCCOCCOCCOCCNC(=O)C(=O)NCCOCCOCCOCCOCCNC(=O)c2cc(-c3ccnn3-c3ccc(C#N)cc3)c(C)n(-c3cccc(C(F)(F)F)c3)c2=O)c(=O)n1-c1cccc(C(F)(F)F)c1` [Compound 7] as the compound, how does the pIC50 read?
Answer: The pIC50 was 6.00 to 6.82.

Question: How did the pIC50 turn out when `Cc1c(-c2ccnn2-c2ccc(C#N)cc2)cc(C(=O)NCCOCCOCCNC(=O)CCC(=O)NCCOCCOCCNC(=O)c2cc(-c3ccnn3-c3ccc(C#N)cc3)c(C)n(-c3cccc(C(F)(F)F)c3)c2=O)c(=O)n1-c1cccc(C(F)(F)F)c1` [Compound 8] was run?
Answer: Its pIC50 is > 6.82.

Question: How did the pIC50 turn out when `Cc1c(-c2ccnn2-c2ccc(C#N)cc2)cc(C(=O)NCCOCCOCCNC(=O)C(=O)NCCOCCOCCNC(=O)c2cc(-c3ccnn3-c3ccc(C#N)cc3)c(C)n(-c3cccc(C(F)(F)F)c3)c2=O)c(=O)n1-c1cccc(C(F)(F)F)c1` [Compound 9] was run?
Answer: The pIC50 was > 6.82.

Question: With `Cc1c(-c2ccnn2-c2ccc(C#N)cc2)cc(C(=O)NCCOCCOCCOCCNC(=O)NCCOCCOCCOCCNC(=O)c2cc(-c3ccnn3-c3ccc(C#N)cc3)c(C)n(-c3cccc(C(F)(F)F)c3)c2=O)c(=O)n1-c1cccc(C(F)(F)F)c1` [Compound 10] as the compound, how does the pIC50 read?
Answer: Its pIC50 is > 6.82.

Question: How did the pIC50 turn out when `Cc1c(-c2ccnn2-c2ccc(C#N)cc2)cc(C(=O)NCCOCCOCCOCCNC(=O)NCCCCNC(=O)NCCOCCOCCOCCNC(=O)c2cc(-c3ccnn3-c3ccc(C#N)cc3)c(C)n(-c3cccc(C(F)(F)F)c3)c2=O)c(=O)n1-c1cccc(C(F)(F)F)c1` [Compound 11] was run?
Answer: Its pIC50 is 6.00 to 6.82.

Question: `Cc1c(-c2ccnn2-c2ccc(C#N)cc2)cc(C(=O)NCCOCCOCCOCCNC(=O)CCC(=O)NCCOCCOCCOCCNC(=O)c2cc(-c3ccnn3-c3ccc(C#N)cc3)c(C)n(-c3cccc(C(F)(F)F)c3)c2=O)c(=O)n1-c1cccc(C(F)(F)F)c1` [Compound 12] was tested. Which pIC50 did it give?
Answer: Its pIC50 is > 6.82.

Question: `Cc1c(-c2ccnn2-c2ccc(C#N)cc2)cc(C(=O)NCCOCCOCCOCCNC(=O)C(=O)NCCOCCOCCOCCNC(=O)c2cc(-c3ccnn3-c3ccc(C#N)cc3)c(C)n(-c3cccc(C(F)(F)F)c3)c2=O)c(=O)n1-c1cccc(C(F)(F)F)c1` [Compound 13] was tested. Which pIC50 did it give?
Answer: Its pIC50 is > 6.82.

Question: `Cc1c(-c2ccnn2-c2ccc(C#N)cc2)cc(C(=O)NCCOCCOCCNC(=O)NCCCCNC(=O)NCCOCCOCCNC(=O)c2cc(-c3ccnn3-c3ccc(C#N)cc3)c(C)n(-c3cccc(C(F)(F)F)c3)c2=O)c(=O)n1-c1cccc(C(F)(F)F)c1` [Compound 14] was tested. Which pIC50 did it give?
Answer: Its pIC50 is > 6.82.

Question: How did the pIC50 turn out when `Cc1c([S+]([O-])c2ccc(C#N)cc2)cc(C(=O)NCCOCCOCCOCCOCCNC(=O)NCCCCNC(=O)NCCOCCOCCOCCOCCNC(=O)c2cc([S+]([O-])c3ccc(C#N)cc3)c(C)n(-c3cccc(C(F)(F)F)c3)c2=O)c(=O)n1-c1cccc(C(F)(F)F)c1` (centres unmarked) [Compound 15] was run?
Answer: Its pIC50 is > 6.82.

Question: With `Cc1c([S+]([O-])c2ccc(C#N)cc2)cc(C(=O)NCCOCCOCCOCCOCCNC(=O)CCC(=O)NCCOCCOCCOCCOCCNC(=O)c2cc([S+]([O-])c3ccc(C#N)cc3)c(C)n(-c3cccc(C(F)(F)F)c3)c2=O)c(=O)n1-c1cccc(C(F)(F)F)c1` (centres unmarked) [Compound 16] as the compound, how does the pIC50 read?
Answer: The pIC50 was > 6.82.

Question: How did the pIC50 turn out when `Cc1c([S+]([O-])c2ccc(C#N)cc2)cc(C(=O)NCCOCCOCCOCCNC(=O)NCCCCNC(=O)NCCOCCOCCOCCNC(=O)c2cc([S+]([O-])c3ccc(C#N)cc3)c(C)n(-c3cccc(C(F)(F)F)c3)c2=O)c(=O)n1-c1cccc(C(F)(F)F)c1` (centres unmarked) [Compound 17] was run?
Answer: The pIC50 was 6.00 to 6.82.

Question: With `Cc1c([S+]([O-])c2ccc(C#N)cc2)cc(C(=O)NCCOCCOCCOCCNC(=O)CCC(=O)NCCOCCOCCOCCNC(=O)c2cc([S+]([O-])c3ccc(C#N)cc3)c(C)n(-c3cccc(C(F)(F)F)c3)c2=O)c(=O)n1-c1cccc(C(F)(F)F)c1` (centres unmarked) [Compound 18] as the compound, how does the pIC50 read?
Answer: The pIC50 was > 6.82.

Question: `Cc1c([S+]([O-])c2ccc(C#N)cc2)cc(C(=O)NCCOCCOCCNC(=O)C(=O)NCCOCCOCCNC(=O)c2cc([S+]([O-])c3ccc(C#N)cc3)c(C)n(-c3cccc(C(F)(F)F)c3)c2=O)c(=O)n1-c1cccc(C(F)(F)F)c1` (centres unmarked) [Compound 19] was tested. Which pIC50 did it give?
Answer: Its pIC50 is > 6.82.

Question: With `Cc1c([S+]([O-])c2ccc(C#N)cc2)cc(C(=O)NCCOCCOCCNC(=O)NCCCCNC(=O)NCCOCCOCCNC(=O)c2cc([S+]([O-])c3ccc(C#N)cc3)c(C)n(-c3cccc(C(F)(F)F)c3)c2=O)c(=O)n1-c1cccc(C(F)(F)F)c1` (centres unmarked) [Compound 20] as the compound, how does the pIC50 read?
Answer: The pIC50 was 6.00 to 6.82.
